Measured values: patent US20060174366A1, “Use of ahas mutant genes as selection marker in potato transformation” (priority 2002, published 2006)

Tests used:
[1] = test system: Potato leaf segments of varieties Prevalent, Producent, Karnico and Desiree; assay: Investigation of selection pressure: lethality of Imazamox concentrations on shoot regeneration from untransformed leaf segments; assay type: cell-based, Solanum tuberosum
Method: Potato leaf segments from in vitro propagated plants of four different potato varieties Prevalent, Producent, Karnico and Desiree were tested for natural tolerance on different concentrations of the imidazolinone herbicide Imazamox. It is important to choose a selection concentration at which the potato leaf tissue is viable long enough to regenerate shoots but have a high enough concentration to prevent the regeneration of untransformed shoots. Doses 0.1, 0.5, 1, 5, 10, 20, 30 and 50 μM Imazamox were tested.
Fully expended potato leaves are diagonally cut in 2 pieces and precultivated on MC-plates for 2 to 3 days at 23 to 24° C., see table 1.
The leaf tissues are transferred on MS300 medium for additional 2 days and cultivated under modest light at 23 to 24° C. simulating a co-cultivation step. Subsequently the leaf segments are moved to MS400 plates containing 400 mg/l Claforan. Claforan is added in order to suppress growth of Agrobacterium tumfaciens. Therefore the regeneration of shoots on different concentrations of Imazamox need to be monitored in presence of Claforan. Selection is taking place within 4 to 5 days when the explants are moved to MS400 medium supplemented with 400mg/l Claforan and Imazamox at above concentrations.
The explants are transferred to fresh selection medium every fortnight.
Leaf tissues were tested for the use of the AHAS resistance gene contained in SEQ ID No. 1 and for the selection of transgenic potato plant cells as described above. Four different potato cultivars Prevalent, Producent, Karnico and Desiree were cultivated on different concentrations of Imazamox, an imidazolinones type herbicides. It is essential to use the proper concentration for selection to yield an acceptable number of shoots per explant without high escape rate. The lethality of various Imazamox concentrations on regeneration was evaluated.
Lethal dose for regeneration was detected within 0.1 to 1 μM ranges of concentrations. Slight variation in lethality was detected between varieties. […]

[2] = test system: in vitro potato leaf segments; assay: Effect of Imazamox on plant cell growth in tissue culture; assay type: cell-based, Solanum tuberosum
From the text: Leaf segments are the explants of choice used in Agrobacterium mediated potato transformation. Transgenic plants are regenerated via direct or indirect organogenesis under selective conditions. Cytokinines as growth hormones are mainly involved in provoking cell division and adventitious bud formation in in vitro potato leaf segments. […] This phenomenon classifies Imazamox as a unique selection agent that is combining both lethality for non-transgenic cells and improved growth for transgenic cells.

COCc1cnc(C2=NC(C)(C(C)C)C(=O)N2)c(C(=O)O)c1 (racemic) [Imazamox, (RS)-2-(4-isopropyl-4-methyl-5-oxo-2-imidazolin-2-yl)-5-methoxymethylnicotinic acid]
lethality in regeneration ([1]; 0.3 μM Imazamox): 80%
lethality in regeneration ([1]; 0.5 μM Imazamox): 100%
Regeneration ([1]; 0.5 μM Imazamox included in the medium): No regeneration
effect in tissue culture ([2]; applied in low concentrations): cytokinine-like effect
effect in tissue culture ([2]; at higher concentrations): acting as an herbicide
